Reference: patent US20220324835A1 (Nurix Therapeutics, Inc., priority 2018, published 2022)

Assays:
T-cell [1] = assay: IL-2 secretion from T-cells stimulated with anti-CD3 antibody alone (Biological Example 2); type: cell-based, human; settings: T-cell, fold change over baseline, primary human total T-cells, read-out: IL-2 secretion Anti-CD3 stimulation; for fold induction at 1 µM: 1 μM Cbl-b inhibitor; for fold induction at 8 µM: 8 μM Cbl-b inhibitor
T-cell [2] = assay: CD25 cell surface staining on T-cells stimulated with anti-CD3 antibody alone (Biological Example 2); type: cell-based, human; settings: T-cell, fold change over baseline, primary human total T-cells, read-out: CD25 staining Anti-CD3 stimulation; for fold induction at 1 µM: 1 μM Cbl-b inhibitor; for fold induction at 8 µM: 8 μM Cbl-b inhibitor

`Cc1cc(C)nc(C(=O)Nc2cccc([C@H](C)Sc3nncn3C)c2)c1` [Compound 56, (S)-4,6-dimethyl-N-(3-(1-((4-methyl-4H-1,2,4-triazol-3-yl)thio)ethyl)phenyl)picolinamide] was tested, and the fold induction at 1 µM (T-cell [1]) was < 0.05, the fold induction at 8 µM (T-cell [1]) was < 0.05 and the fold induction at 1 µM (T-cell [2]) was < 0.6. The fold induction at 8 µM (T-cell [2]) was 0.801 to 1.
In the case of `C[C@H](Cc1nncn1C)c1ccnc(NC(=O)c2cccc(C(F)(F)F)n2)c1` [Compound 302, (R)-N-(4-(1-(4-methyl-4H-1,2,4-triazol-3-yl)propan-2-yl)pyridin-2-yl)-6-(trifluoromethyl)picolinamide], the fold induction at 1 µM (T-cell [1]) is reported as < 0.05, the fold induction at 8 µM (T-cell [1]) is reported as 0.051 to 0.1 and the fold induction at 1 µM (T-cell [2]) is reported as < 0.6. For the same compound, the fold induction at 8 µM (T-cell [2]) was 0.801 to 1.
`C[C@H](Cc1nncn1C)c1cc(F)cc(N2Cc3c(cccc3C(F)(F)F)C2=O)c1` [Compound 281a, 2-[3-Fluoro-5-[(1R)-1-methyl-2-(4-methyl-1,2,4-triazol-3-yl)ethyl]phenyl]-4-(trifluoromethyl)isoindolin-1-one] was tested, and the fold induction at 1 µM (T-cell [1]) was < 0.05, the fold induction at 8 µM (T-cell [1]) was 0.051 to 0.1 and the fold induction at 1 µM (T-cell [2]) was 0.801 to 1. For the same compound, the fold induction at 8 µM (T-cell [2]) was > 1.
With `Cn1cnnc1[C@@H]1C[C@@H]1c1cccc(NC(=O)c2nc3c(C(F)(F)F)cccc3[nH]2)c1` [Compound 332, N-(3-((1S,2R)-2-(4-methyl-4H-1,2,4-triazol-3-yl)cyclopropyl)phenyl)-4-(trifluoromethyl)-1H-benzo[d]imidazole-2-carboxamide] the fold induction at 1 µM (T-cell [1]) was 0.101 to 0.15, the fold induction at 8 µM (T-cell [1]) was > 0.201 and the fold induction at 1 µM (T-cell [2]) was 0.601 to 0.8. The fold induction at 8 µM (T-cell [2]) was 0.801 to 1.
With `C[C@H](Cc1nncn1C)c1cccc(NC(=O)c2cncc(C(F)(F)F)n2)c1` [Compound 189, (R)-N-(3-(1-(4-methyl-4H-1,2,4-triazol-3-yl)propan-2-yl)phenyl)-6-(trifluoromethyl)pyrazine-2-carboxamide] the fold induction at 1 µM (T-cell [1]) was 0.051 to 0.1, the fold induction at 8 µM (T-cell [1]) was 0.051 to 0.1 and the fold induction at 1 µM (T-cell [2]) was 0.601 to 0.8. The fold induction at 8 µM (T-cell [2]) was > 1.
With `C[C@H](Sc1nncn1C)c1ccnc(NC(=O)c2cc(Cl)cc(C(F)(F)F)n2)c1` [Compound 105, (S)-4-chloro-N-(4-(1-((4-methyl-4H-1,2,4-triazol-3-yl)thio)ethyl)pyridin-2-yl)-6-(trifluoromethyl)picolinamide] the fold induction at 1 µM (T-cell [1]) was < 0.05, the fold induction at 8 µM (T-cell [1]) was < 0.05 and the fold induction at 1 µM (T-cell [2]) was < 0.6. The fold induction at 8 µM (T-cell [2]) was 0.601 to 0.8.
